From US9738634B2, “Heterocyclic amide compound and herbicide” (SYNGENTA PARTICIPATIONS AG, priority 2013, dated 2017)

What was measured:
Format in all cases: in vivo
chickweed = test: Test Example 3: weedkilling efficacy through soil treatment; N: chickweed; conditions: soil treatment
In short: (§1)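 Crop and weed responses were judged three weeks after a uniform surface spray of the water-diluted emulsion at the given g/ha rate. Seeds sat beneath about 1.5 cm of sterilized diluvial soil, and boxes stood in a greenhouse at 25 to 30° C.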

Indian mallow = test: Test Example 3: weedkilling efficacy through soil treatment; K: Indian mallow; conditions: soil treatment
In short: as §1

common wind-grass = test: Test Example 3: weedkilling efficacy through soil treatment; J: common wind-grass; conditions: soil treatment
In short: as §1

rapeseed = test: Test Example 3: soil treatment, effect on crop; g: rapeseed; conditions: soil treatment
In short: as §1

corn = test: Test Example 3: soil treatment, effect on crop; c: corn; conditions: soil treatment
In short: as §1

directly sown rice = test: Test Example 3: soil treatment, effect on crop; b: directly sown rice; conditions: soil treatment
In short: as §1

bulrush [1] = test: Test Example 1: weedkilling efficacy, preemergent weed treatment in the submerged state; B: bulrush
In short: (§2)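 Pre-emergence paddy test: weed seeds sown in submerged alluvial soil (4 cm water), 2.5-leaf rice transplanted, water-diluted emulsion applied to water surface at sowing at stated g/ha. Scored at 3 weeks, greenhouse 25–30 °C.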

wheat = test: Test Example 3: soil treatment, effect on crop; e: wheat; conditions: soil treatment
In short: as §1

black-grass = test: Test Example 3: weedkilling efficacy through soil treatment; H: black-grass; conditions: soil treatment
In short: as §1

wild oat = test: Test Example 3: weedkilling efficacy through soil treatment; G: wild oat; conditions: soil treatment
In short: as §1

green foxtail = test: Test Example 3: weedkilling efficacy through soil treatment; E: green foxtail; conditions: soil treatment
In short: as §1

birds-eye speedwell = test: Test Example 3: weedkilling efficacy through soil treatment; p: birds-eye speedwell; conditions: soil treatment
In short: as §1

oval-leafed pondweed [2] = test: Test Example 2: weedkilling efficacy, growth period weed treatment in the submerged state; C: oval-leafed pondweed
In short: (§3)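 Seedlings at 1-2 leaves in 4 cm-deep submerged alluvial soil received emulsion formulations on the water surface, dosed per hectare; effects were judged 3 weeks on.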

catchweed = test: Test Example 3: weedkilling efficacy through soil treatment; O: catchweed; conditions: soil treatment
In short: as §1

soybean = test: Test Example 3: soil treatment, effect on crop; d: soybean; conditions: soil treatment
In short: as §1

beet = test: Test Example 3: soil treatment, effect on crop; f: beet; conditions: soil treatment
In short: as §1

redroot pigweed = test: Test Example 3: weedkilling efficacy through soil treatment; L: redroot pigweed; conditions: soil treatment
In short: as §1

Italian ryegrass = test: Test Example 3: weedkilling efficacy through soil treatment; I: Italian ryegrass; conditions: soil treatment
In short: as §1

fig-leafed goosefoot = test: Test Example 3: weedkilling efficacy through soil treatment; M: fig-leafed goosefoot; conditions: soil treatment, treatment dosage 320 g/ha
In short: as §1

oval-leafed pondweed [3] = test: Test Example 1: weedkilling efficacy, preemergent weed treatment in the submerged state; C: oval-leafed pondweed
In short: as §2

barnyard grass [4] = test: Test Example 2: weedkilling efficacy, growth period weed treatment in the submerged state; A: barnyard grass
In short: as §3

transplanted rice = test: Test Example 1: preemergent weed treatment in the submerged state, effect on crop; a: transplanted rice
In short: as §2

barnyard grass [5] = test: Test Example 3: weedkilling efficacy through soil treatment; F: barnyard grass; conditions: soil treatment
In short: as §1

bulrush [6] = test: Test Example 2: weedkilling efficacy, growth period weed treatment in the submerged state; B: bulrush
In short: as §3

barnyard grass [7] = test: Test Example 1: weedkilling efficacy, preemergent weed treatment in the submerged state; A: barnyard grass
In short: as §2

crabgrass = test: Test Example 3: weedkilling efficacy through soil treatment; D: crabgrass; conditions: soil treatment
In short: as §1

CC(C)(C(=O)Nc1nncs1)N1COCN(c2ccccc2)C1=O [A-1-12]
N: chickweed, weedkilling efficacy grade (chickweed; treatment dosage 320 g/ha): 3 (weed kill ratio 40% or more, less than 70%)
K: Indian mallow, weedkilling efficacy grade (Indian mallow; treatment dosage 320 g/ha): 0 (weed kill ratio 5% or less (practically no effect))
J: common wind-grass, weedkilling efficacy grade (common wind-grass; treatment dosage 320 g/ha): 5 (weed kill ratio 90% or more, (practically complete withering))
g: rapeseed, effect on crop grade (rapeseed; treatment dosage 320 g/ha): 0 (weed kill ratio 5% or less (practically no effect))
c: corn, effect on crop grade (corn; treatment dosage 320 g/ha): 0 (weed kill ratio 5% or less (practically no effect))
b: directly sown rice, effect on crop grade (directly sown rice; treatment dosage 320 g/ha): 5 (weed kill ratio 90% or more, (practically complete withering))
B: bulrush, weed kill grade (bulrush [1]; treatment dosage 320 g/ha): 5 (weed kill ratio 90% or more, (practically complete withering))
e: wheat, effect on crop grade (wheat; treatment dosage 320 g/ha): 0 (weed kill ratio 5% or less (practically no effect))
H: black-grass, weedkilling efficacy grade (black-grass; treatment dosage 320 g/ha): 5 (weed kill ratio 90% or more, (practically complete withering))
G: wild oat, weedkilling efficacy grade (wild oat; treatment dosage 320 g/ha): 3 (weed kill ratio 40% or more, less than 70%)
E: green foxtail, weedkilling efficacy grade (green foxtail; treatment dosage 320 g/ha): 5 (weed kill ratio 90% or more, (practically complete withering))
P: birds-eye speedwell, weedkilling efficacy grade (birds-eye speedwell; treatment dosage 320 g/ha): 3 (weed kill ratio 40% or more, less than 70%)
C (oval-leafed pondweed) weedkilling efficacy grade (oval-leafed pondweed [2]; treatment dosage 320 g/ha): 3 (weed kill ratio 40% or more, less than 70%)
O: catchweed, weedkilling efficacy grade (catchweed; treatment dosage 320 g/ha): 0 (weed kill ratio 5% or less (practically no effect))
d: soybean, effect on crop grade (soybean; treatment dosage 320 g/ha): 4 (weed kill ratio 70% or more, less than 90%)
f: beet, effect on crop grade (beet; treatment dosage 320 g/ha): 2 (weed kill ratio 20% or more, less than 40%)
L: redroot pigweed, weedkilling efficacy grade (redroot pigweed; treatment dosage 320 g/ha): 0 (weed kill ratio 5% or less (practically no effect))
I: Italian ryegrass, weedkilling efficacy grade (Italian ryegrass; treatment dosage 320 g/ha): 5 (weed kill ratio 90% or more, (practically complete withering))
M: fig-leafed goosefoot, weedkilling efficacy grade (fig-leafed goosefoot): 4 (weed kill ratio 70% or more, less than 90%)
C: oval-leafed pondweed, weed kill grade (oval-leafed pondweed [3]; treatment dosage 320 g/ha): 4 (weed kill ratio 70% or more, less than 90%)
A (barnyard grass) weedkilling efficacy grade (barnyard grass [4]; treatment dosage 320 g/ha): 1 (weed kill ratio 5% or more, less than 20%)
a: transplanted rice, effect on crop grade (transplanted rice; treatment dosage 320 g/ha): 0 (weed kill ratio 5% or less (practically no effect))
F: barnyard grass, weedkilling efficacy grade (barnyard grass [5]; treatment dosage 320 g/ha): 3 (weed kill ratio 40% or more, less than 70%)
B (bulrush) weedkilling efficacy grade (bulrush [6]; treatment dosage 320 g/ha): 5 (weed kill ratio 90% or more, (practically complete withering))
A: barnyard grass, weed kill grade (barnyard grass [7]; treatment dosage 320 g/ha): 5 (weed kill ratio 90% or more, (practically complete withering))

CC(C)(C(=O)Nc1cc(F)cc(F)n1)N1COCN(c2ccccc2)C1=O [A-2-13]
N: chickweed, weedkilling efficacy grade (chickweed; treatment dosage 315 g/ha): 5 (weed kill ratio 90% or more, (practically complete withering))
K: Indian mallow, weedkilling efficacy grade (Indian mallow; treatment dosage 315 g/ha): 5 (weed kill ratio 90% or more, (practically complete withering))
J: common wind-grass, weedkilling efficacy grade (common wind-grass; treatment dosage 315 g/ha): 5 (weed kill ratio 90% or more, (practically complete withering))
g: rapeseed, effect on crop grade (rapeseed; treatment dosage 315 g/ha): 5 (weed kill ratio 90% or more, (practically complete withering))
c: corn, effect on crop grade (corn; treatment dosage 315 g/ha): 4 (weed kill ratio 70% or more, less than 90%)
b: directly sown rice, effect on crop grade (directly sown rice; treatment dosage 315 g/ha): 5 (weed kill ratio 90% or more, (practically complete withering))
B: bulrush, weed kill grade (bulrush [1]; treatment dosage 252 g/ha): 5 (weed kill ratio 90% or more, (practically complete withering))
e: wheat, effect on crop grade (wheat; treatment dosage 315 g/ha): 5 (weed kill ratio 90% or more, (practically complete withering))
H: black-grass, weedkilling efficacy grade (black-grass; treatment dosage 315 g/ha): 5 (weed kill ratio 90% or more, (practically complete withering))
G: wild oat, weedkilling efficacy grade (wild oat; treatment dosage 315 g/ha): 5 (weed kill ratio 90% or more, (practically complete withering))
E: green foxtail, weedkilling efficacy grade (green foxtail; treatment dosage 315 g/ha): 5 (weed kill ratio 90% or more, (practically complete withering))
D: crabgrass, weedkilling efficacy grade (crabgrass; treatment dosage 315 g/ha): 5 (weed kill ratio 90% or more, (practically complete withering))
P: birds-eye speedwell, weedkilling efficacy grade (birds-eye speedwell; treatment dosage 315 g/ha): 5 (weed kill ratio 90% or more, (practically complete withering))
C (oval-leafed pondweed) weedkilling efficacy grade (oval-leafed pondweed [2]; treatment dosage 252 g/ha): 5 (weed kill ratio 90% or more, (practically complete withering))
O: catchweed, weedkilling efficacy grade (catchweed; treatment dosage 315 g/ha): 5 (weed kill ratio 90% or more, (practically complete withering))
d: soybean, effect on crop grade (soybean; treatment dosage 315 g/ha): 3 (weed kill ratio 40% or more, less than 70%)
f: beet, effect on crop grade (beet; treatment dosage 315 g/ha): 4 (weed kill ratio 70% or more, less than 90%)
L: redroot pigweed, weedkilling efficacy grade (redroot pigweed; treatment dosage 315 g/ha): 5 (weed kill ratio 90% or more, (practically complete withering))
I: Italian ryegrass, weedkilling efficacy grade (Italian ryegrass; treatment dosage 315 g/ha): 5 (weed kill ratio 90% or more, (practically complete withering))
C: oval-leafed pondweed, weed kill grade (oval-leafed pondweed [3]; treatment dosage 252 g/ha): 5 (weed kill ratio 90% or more, (practically complete withering))
A (barnyard grass) weedkilling efficacy grade (barnyard grass [4]; treatment dosage 252 g/ha): 5 (weed kill ratio 90% or more, (practically complete withering))
a: transplanted rice, effect on crop grade (transplanted rice; treatment dosage 252 g/ha): 3 (weed kill ratio 40% or more, less than 70%)
F: barnyard grass, weedkilling efficacy grade (barnyard grass [5]; treatment dosage 315 g/ha): 5 (weed kill ratio 90% or more, (practically complete withering))
B (bulrush) weedkilling efficacy grade (bulrush [6]; treatment dosage 252 g/ha): 5 (weed kill ratio 90% or more, (practically complete withering))
A: barnyard grass, weed kill grade (barnyard grass [7]; treatment dosage 252 g/ha): 5 (weed kill ratio 90% or more, (practically complete withering))

CC(C)(C(=O)Nc1cc(Br)cc(F)n1)N1COCN(c2ccccc2)C1=O [A-2-19]
N: chickweed, weedkilling efficacy grade (chickweed; treatment dosage 320 g/ha): 5 (weed kill ratio 90% or more, (practically complete withering))
K: Indian mallow, weedkilling efficacy grade (Indian mallow; treatment dosage 320 g/ha): 0 (weed kill ratio 5% or less (practically no effect))
J: common wind-grass, weedkilling efficacy grade (common wind-grass; treatment dosage 320 g/ha): 5 (weed kill ratio 90% or more, (practically complete withering))
g: rapeseed, effect on crop grade (rapeseed; treatment dosage 320 g/ha): 5 (weed kill ratio 90% or more, (practically complete withering))
c: corn, effect on crop grade (corn; treatment dosage 320 g/ha): 2 (weed kill ratio 20% or more, less than 40%)
b: directly sown rice, effect on crop grade (directly sown rice; treatment dosage 320 g/ha): 0 (weed kill ratio 5% or less (practically no effect))
B: bulrush, weed kill grade (bulrush [1]; treatment dosage 320 g/ha): 5 (weed kill ratio 90% or more, (practically complete withering))
e: wheat, effect on crop grade (wheat; treatment dosage 320 g/ha): 2 (weed kill ratio 20% or more, less than 40%)
H: black-grass, weedkilling efficacy grade (black-grass; treatment dosage 320 g/ha): 5 (weed kill ratio 90% or more, (practically complete withering))
G: wild oat, weedkilling efficacy grade (wild oat; treatment dosage 320 g/ha): 5 (weed kill ratio 90% or more, (practically complete withering))
E: green foxtail, weedkilling efficacy grade (green foxtail; treatment dosage 320 g/ha): 5 (weed kill ratio 90% or more, (practically complete withering))
D: crabgrass, weedkilling efficacy grade (crabgrass; treatment dosage 320 g/ha): 5 (weed kill ratio 90% or more, (practically complete withering))
P: birds-eye speedwell, weedkilling efficacy grade (birds-eye speedwell; treatment dosage 320 g/ha): 4 (weed kill ratio 70% or more, less than 90%)
C (oval-leafed pondweed) weedkilling efficacy grade (oval-leafed pondweed [2]; treatment dosage 320 g/ha): 5 (weed kill ratio 90% or more, (practically complete withering))
O: catchweed, weedkilling efficacy grade (catchweed; treatment dosage 320 g/ha): 4 (weed kill ratio 70% or more, less than 90%)
f: beet, effect on crop grade (beet; treatment dosage 320 g/ha): 4 (weed kill ratio 70% or more, less than 90%)
L: redroot pigweed, weedkilling efficacy grade (redroot pigweed; treatment dosage 320 g/ha): 0 (weed kill ratio 5% or less (practically no effect))
I: Italian ryegrass, weedkilling efficacy grade (Italian ryegrass; treatment dosage 320 g/ha): 5 (weed kill ratio 90% or more, (practically complete withering))
M: fig-leafed goosefoot, weedkilling efficacy grade (fig-leafed goosefoot): 4 (weed kill ratio 70% or more, less than 90%)
C: oval-leafed pondweed, weed kill grade (oval-leafed pondweed [3]; treatment dosage 320 g/ha): 5 (weed kill ratio 90% or more, (practically complete withering))
A (barnyard grass) weedkilling efficacy grade (barnyard grass [4]; treatment dosage 320 g/ha): 5 (weed kill ratio 90% or more, (practically complete withering))
a: transplanted rice, effect on crop grade (transplanted rice; treatment dosage 320 g/ha): 3 (weed kill ratio 40% or more, less than 70%)
F: barnyard grass, weedkilling efficacy grade (barnyard grass [5]; treatment dosage 320 g/ha): 5 (weed kill ratio 90% or more, (practically complete withering))
B (bulrush) weedkilling efficacy grade (bulrush [6]; treatment dosage 320 g/ha): 5 (weed kill ratio 90% or more, (practically complete withering))
A: barnyard grass, weed kill grade (barnyard grass [7]; treatment dosage 320 g/ha): 5 (weed kill ratio 90% or more, (practically complete withering))
